Experiments:
[1] = biological target: Beta-lactamase (Pseudomonas aeruginosa, UniProt Q79MP6)
[2] = biological target: T1, Beta-lactamase II (Bacillus anthracis, UniProt Q93T40)
T1 sequence (Q93T40 whole entry): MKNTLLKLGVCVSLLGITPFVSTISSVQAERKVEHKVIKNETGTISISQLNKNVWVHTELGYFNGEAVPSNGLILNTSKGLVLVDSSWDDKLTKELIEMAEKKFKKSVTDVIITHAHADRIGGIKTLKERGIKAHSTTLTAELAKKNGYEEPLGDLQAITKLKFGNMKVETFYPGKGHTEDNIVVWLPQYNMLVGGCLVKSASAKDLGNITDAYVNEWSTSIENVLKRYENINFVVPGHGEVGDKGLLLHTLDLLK

[3] = biological target: T1, Beta-lactamase II; remark: listed apart in the source

Chain of Beta-lactamase (Q79MP6 whole entry): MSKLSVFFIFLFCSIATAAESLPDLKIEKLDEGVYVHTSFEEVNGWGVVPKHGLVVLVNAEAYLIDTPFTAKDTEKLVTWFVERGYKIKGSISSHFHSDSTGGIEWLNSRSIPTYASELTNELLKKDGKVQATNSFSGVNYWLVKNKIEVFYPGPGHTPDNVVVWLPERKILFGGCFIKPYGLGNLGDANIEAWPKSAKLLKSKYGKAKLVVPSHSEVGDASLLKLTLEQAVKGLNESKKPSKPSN

SMILES | IC50 [1] | IC50 [2] | Ki [2] | IC50 [3]
O=C(O)c1csc(-c2ccccc2)n1 | > 200 µM | > 200 µM | – | –
O=C(O)[C@@H]1CSC(c2ccccc2)N1 (stereo partly drawn) | > 200 µM | > 200 µM | – | –
O=C(O)c1csc(Cc2ccccc2)n1 | – | > 200 µM | – | –
O=C(Cc1ccccc1)NCC1=N[C@H](C(=O)O)CS1 | > 200 µM | > 200 µM | – | –
O=C(O)[C@@H]1CSC(Cc2ccccc2)=N1 | > 200 µM | > 200 µM | – | –
O=C(O)[C@@H]1CSC(Cc2ccccc2)N1 (stereo partly drawn) | > 200 µM | > 200 µM | – | –
O=C(O)[C@@H]1CSC(c2ccc(Cl)cc2)=N1 | > 200 µM | > 200 µM | – | –
O=C(O)[C@@H]1CSC(c2ccc(Br)cc2)=N1 | > 200 µM | > 200 µM | – | –
Nc1cccc(C2=N[C@H](C(=O)O)CS2)c1 | 77 µM | 4.9 µM | 5.1 µM | –
CC(=O)Nc1cccc(C2=N[C@H](C(=O)O)CS2)c1 | > 200 µM | > 200 µM | – | –
CC(C)(C)OC(=O)Nc1cccc(C2=N[C@H](C(=O)O)CS2)c1 | > 200 µM | 74.1 µM | – | –
COc1cccc(CC(=O)NCC2=N[C@H](C(=O)O)CS2)c1 | > 200 µM | > 200 µM | – | –
CC(C)(C)OC(=O)NCC1=N[C@H](C(=O)O)CS1 | > 200 µM | > 200 µM | – | –
O=C(NCC1=N[C@H](C(=O)O)CS1)OCc1ccccc1 | > 200 µM | > 200 µM | – | –
O=C(O)[C@@H]1CSC(c2ccccc2O)=N1 | > 200 µM | > 200 µM | – | –
C[C@H](CS)C(=O)N1CCC[C@H]1C(=O)O [CAPTOPRIL] | – | 25.8 µM | 17.9 µM | –
O=C(O)CN(CCN(CC(=O)O)CC(=O)O)CC(=O)O [EDETIC ACID] | – | – | – | 1060 µM
